According to US8663646B2, “P53 peptide vaccine” (priority 2007, dated 2014):
Where two headings read alike, the source gives them in different places. Where no end group is shown, it is not given here.

Tests used:
[1] = biological target: T1, 20S immuno-proteasomes from mouse B-cell line (RMA) (Mus musculus, UniProt O35955+P28063+P28076); experiment: In vitro proteasome mediated digestion of 30-mers, mass spectrometry, immunoproteasome RMA; format: biochemical; details: 30 residue long precursor peptides
T1 construct: 20S immuno-proteasomes were purified from a mouse B-cell line (RMA); endogenous in cells; host or cells: RMA cells; 20S proteasome purified from them
Experimental: (§1) In the context of the invention, “being inefficiently processed by a proteasome” preferably means that within the first hour of digestion by a proteasome less than 1% of total digested peptide is found. The processing by a proteasome is preferably assessed by incubating a purified proteasome, more preferably a human proteasome with a peptide comprising the potential CTL epitope (30 amino acid length approximately) in a proteasome digestion buffer during at least one hour at 37° C. The reaction is subsequently stopped by adding trifluoroacetic acid. Analysis of the digested peptides is performed with electrospray ionization mass spectrometry (see example 1). Even more preferably, the human proteasome is an immunoproteasome from B-LCL JY cells (Kessler J H et al. 2001).
(§2) 20S immuno-proteasomes were purified from a mouse B-cell line (RMA) and a human B-LCL cell line (JY) and 20S household proteasomes were purified from human tumor cell line (HeLa) as described (Kessler J H et al 2001). To assess kinetics, digestions were performed with different incubation periods as indicated. Briefly, peptides containing the (potential) CTL epitopes (30 mers, 20 μg) were incubated with 1 μg of purified proteasome at 37° C. for 1 h, 4 h and 24 h in 300 μl proteasome digestion buffer, trifluoroacetic acid (30 μl) was added to stop the digestion and samples were stored at −20° C. before mass spectrometric analysis. Electrospray ionization mass spectrometry was performed on a hybrid quadrupole time-of-flight mass spectromter, a Q-TOF (Micromass), equipped with an on-line nanoelectrospray interface with an approximate flow rate of […] as described (Kessler J H et al 2001). The peaks in the mass spectrum were searched in the digested precursor peptide using the Biolynx/proteins software (Micromass) supplied with the mass spectrometer. The intensity of the peaks in the mass spectra was used to establish the relative amounts of peptides generated after proteasome digestion. The relative amounts of the peptides are given as a percentage of the total amount of peptide digested by the proteasome at the indicated incubation time. Major cleavage sites are defined as more than >1% of total digested peptide within the first hour.

[2] = biological target: T2, 20S immuno-proteasomes from human B-LCL cell line (JY) (Homo sapiens, UniProt P28062+P28065+P40306); experiment: In vitro proteasome mediated digestion of 30-mers, mass spectrometry, immunoproteasome JY; format: biochemical; details: 30 residue long precursor peptides
T2 construct: purified from a mouse B-cell line (RMA) and a human B-LCL cell line (JY); endogenous in cells; host or cells: B-LCL JY cells; 20S proteasome purified from them
Experimental: as §1, §2

HLA-A*0301 [3] = biological target: T3, HLA-A*0301 (Homo sapiens, UniProt P04439); experiment: Stability of peptide-HLA complex, binding at 4° C. and 20° C., HLA-A*0301; details: for Peptide Binding Stability: HLA-A*0301, IC50 at 20° C. vs 4° C.; for HLA binding Stability (Table 5): HLA type A3
T3 construct: B-cell lines used are: CAA (A*0101), EKR (A*0301), BVR (A*1101), VIJF (A*2401); endogenous in cells; host or cells: B-cell line EKR
Experimental: (§3) Stability of other peptide-HLA complexes was preferably determined as follows. […] Peptides of >50% of the initial complexes was lost within 2 hours were considered unstable. […] The rest was designated as unstable peptide binding.
(§4) Peptides 8-11 residues in length were selected based on typical anchor residues for HLA-A*0101, A*0301, A*1101 and HLA-A*2401 (Rammensee H G et al). The capacity of peptides to bind was tested in a competition based cellular binding assay as previously described (van der Burg S H et al 1995). FL-labeled reference peptides were synthesized as Cys-derivative (van der Burg S H et al 1995). Fluorescence labeled reference peptides used were: YLEPAC(FL)AK (SEQ ID NO: 87) (HLA-A*0101) and KVFPC(FL)ALINK (SEQ ID NO: 88) (HLA-A*1101) (Sette A et al), KVFPC(FL)ALINK (SEQ ID NO: 89) (HLAA*0301) (van der Burg S H et al 1995) and RYLKC(FL)QQLL (SEQ ID NO: 90) (A*2401) (Dai L C et al). B-cell lines used are: CAA (A*0101), EKR (A*0301), BVR (A*1101), VIJF (A*2401). The relative binding capacity of the peptides is expressed as the peptide concentration to inhibit 50% (1050) of the binding of the reference peptide. […] Peptide stabilization for HLA-A*0201 was performed as previously described (van der Burg S H et al, 1996). Peptides of >50% of the initial complexes was lost within 2 hours were considered unstable. Stability of other peptide-HLA complexes was determined as follows. Peptide binding was performed at 4° C. and 20° C. and 1050 were determined. […] The rest was designated as unstable peptide binding.

HLA-A*0301 [4] = biological target: T3, HLA-A*0301; experiment: Competition based cellular binding assay, HLA-A*0301 (B-cell line EKR); details: for Peptide Binding Affinity / IC50: HLA-A*0301, IC50 category; for HLA binding Affinity (Table 5): HLA type A3; for IC50: read-out: Peptide Binding Affinity
HLA-A*1101 [5] = biological target: T4, HLA-A*1101 (Homo sapiens, UniProt P04439, A114D/D185E/E176A/F33Y/L180Q/S129P/T187R); experiment: Stability of peptide-HLA complex, binding at 4° C. and 20° C., HLA-A*1101; details: for HLA binding Stability (Table 5): HLA type A11; for Peptide Binding Stability: HLA-A*1101, IC50 at 20° C. vs 4° C.
T4 construct: B-cell lines used are: CAA (A*0101), EKR (A*0301), BVR (A*1101), VIJF (A*2401); endogenous in cells; host or cells: B-cell line BVR
Experimental: as §3, §4

HLA-A*1101 [6] = biological target: T4, HLA-A*1101; experiment: Competition based cellular binding assay, HLA-A*1101 (B-cell line BVR); details: for HLA binding Affinity (Table 5): HLA type A11
[7] = HLA-A*1101, IC50 category, read-out: Peptide Binding Affinity

Row | Molecule | HLA binding Affinity (Table 5) (HLA-A*0301 [4]) | IC50 (HLA-A*0301 [4]) [µM] | HLA binding Affinity (Table 5) (HLA-A*1101 [6]) | Peptide Binding Affinity (HLA-A*1101 [6]; HLA-A*1101, IC50 category) | IC50 (HLA-A*1101 [6]; [7]) [µM] | Proteasomal Cleavage of C-terminus, IP (RMA) [1] | Proteasomal Cleavage of C-terminus, IP (JY) [2] | Peptide Binding Stability (HLA-A*0301 [3]) | Peptide Binding Affinity (HLA-A*0301 [4]) | HLA binding Stability (Table 5) (HLA-A*0301 [3]) | HLA binding Stability (Table 5) (HLA-A*1101 [5]) | Peptide Binding Stability (HLA-A*1101 [5]) | IC50 (HLA-A*1101 [6]) [µM]
1 | CC(C)C[C@H](NC(=O)[C@H](Cc1ccccc1)NC(=O)CNC(=O)[C@H](CC(C)C)NC(=O)[C@@H](N)CCCNC(=N)N)C(=O)N[C@@H](Cc1c[nH]cn1)C(=O)N[C@@H](CO)C(=O)NCC(=O)N[C@H](C(=O)N[C@@H](C)C(=O)N[C@@H](CCCCN)C(=O)O)[C@@H](C)O [p53 110-120] | – | – | – | – | – | + (Major cleavage sites are defined as more than >1% of total digested peptide within the first hour) | + (Major cleavage sites are defined as more than >1% of total digested peptide within the first hour) | + (Stable peptides displayed IC50 at 20 °C that deviated <2 times of the IC50 at 4° C.) | high | – | – | – | –
2 | CC(C)C[C@H](NC(=O)[C@@H](N)Cc1ccccc1)C(=O)N[C@@H](Cc1c[nH]cn1)C(=O)N[C@@H](CO)C(=O)NCC(=O)N[C@H](C(=O)N[C@@H](C)C(=O)N[C@@H](CCCCN)C(=O)O)[C@@H](C)O [p53 113-120] | int | 5 to 15 | – | – | – | + (Major cleavage sites are defined as more than >1% of total digested peptide within the first hour) | + (Major cleavage sites are defined as more than >1% of total digested peptide within the first hour) | +/− (Peptides that displayed IC50 at 20 °C of more than twice the IC50 at 4 °C but IC50 < 15 μM were considered to bind with intermediate stability.) | – | − (The rest was designated as unstable peptide binding.) | – | – | –
3 | C[C@@H](O)[C@H](NC(=O)[C@@H](N)CC(N)=O)C(=O)N[C@@H](CO)C(=O)N[C@@H](CO)C(=O)N[C@@H](CO)C(=O)N1CCC[C@H]1C(=O)N[C@@H](CCC(N)=O)C(=O)N1CCC[C@H]1C(=O)N[C@@H](CCCCN)C(=O)O [p53 311-319] | – | – | high | high | – | – | – | – | – | – | +/− (Peptides that displayed IC50 at 20 °C of more than twice the IC50 at 4 °C but IC50 < 15 μM were considered to bind with intermediate stability.) | +/− (Peptides that displayed IC50 at 20 °C of more than twice the IC50 at 4 °C but IC50 < 15 μM were considered to bind with intermediate stability.) | –
4 | GFLHSGTAK [p53 112-120] | int | 5 to 15 | int | – | 5 to 15 | + (Major cleavage sites are defined as more than >1% of total digested peptide within the first hour) | + (Major cleavage sites are defined as more than >1% of total digested peptide within the first hour) | − (The rest was designated as unstable peptide binding.) | – | − (The rest was designated as unstable peptide binding.) | − (The rest was designated as unstable peptide binding.) | − (The rest was designated as unstable peptide binding.) | –
5 | GQSTSRHKK [p53 374-382] | – | – | int | – | – | – | – | – | – | – | +/− (Peptides that displayed IC50 at 20 °C of more than twice the IC50 at 4 °C but IC50 < 15 μM were considered to bind with intermediate stability.) | +/− (Peptides that displayed IC50 at 20 °C of more than twice the IC50 at 4 °C but IC50 < 15 μM were considered to bind with intermediate stability.) | 5 to 15
6 | RTEEENLRK [p53 283-291] | – | – | int | – | 5 to 15 | – | – | – | – | – | +/− (Peptides that displayed IC50 at 20 °C of more than twice the IC50 at 4 °C but IC50 < 15 μM were considered to bind with intermediate stability.) | +/− (Peptides that displayed IC50 at 20 °C of more than twice the IC50 at 4 °C but IC50 < 15 μM were considered to bind with intermediate stability.) | –

Second part, led by results:

Row | HLA binding Affinity (Table 5) (HLA-A*0301 [4]) | IC50 (HLA-A*0301 [4]) [µM] | HLA binding Affinity (Table 5) (HLA-A*1101 [6]) | Peptide Binding Affinity (HLA-A*1101 [6]; HLA-A*1101, IC50 category) | IC50 (HLA-A*1101 [6]; [7]) [µM] | Molecule | Proteasomal Cleavage of C-terminus, IP (RMA) [1] | Proteasomal Cleavage of C-terminus, IP (JY) [2] | Peptide Binding Stability (HLA-A*0301 [3]) | Peptide Binding Affinity (HLA-A*0301 [4]) | HLA binding Stability (Table 5) (HLA-A*0301 [3]) | HLA binding Stability (Table 5) (HLA-A*1101 [5]) | Peptide Binding Stability (HLA-A*1101 [5]) | IC50 (HLA-A*1101 [6]) [µM]
7 | – | – | high | high | – | C[C@@H](O)[C@H](NC(=O)[C@@H](N)CC(N)=O)C(=O)N[C@@H](CO)C(=O)N[C@@H](CO)C(=O)N[C@@H](CO)C(=O)N1CCC[C@H]1C(=O)N[C@@H](CCC(N)=O)C(=O)N1CCC[C@H]1C(=O)N[C@@H](CCCCN)C(=O)N[C@@H](CCCCN)C(=O)O [p53 311-320] | – | – | – | – | – | +/− (Peptides that displayed IC50 at 20 °C of more than twice the IC50 at 4 °C but IC50 < 15 μM were considered to bind with intermediate stability.) | +/− (Peptides that displayed IC50 at 20 °C of more than twice the IC50 at 4 °C but IC50 < 15 μM were considered to bind with intermediate stability.) | –
8 | – | – | high | high | – | C[C@@H](O)[C@H](N)C(=O)N[C@@H](CO)C(=O)N[C@@H](CO)C(=O)N[C@@H](CO)C(=O)N1CCC[C@H]1C(=O)N[C@@H](CCC(N)=O)C(=O)N1CCC[C@H]1C(=O)N[C@@H](CCCCN)C(=O)O [p53 312-319] | – | – | – | – | – | +/− (Peptides that displayed IC50 at 20 °C of more than twice the IC50 at 4 °C but IC50 < 15 μM were considered to bind with intermediate stability.) | +/− (Peptides that displayed IC50 at 20 °C of more than twice the IC50 at 4 °C but IC50 < 15 μM were considered to bind with intermediate stability.) | –
9 | high | – | int | – | 5 to 15 | CC(C)C[C@H](NC(=O)[C@H](Cc1c[nH]cn1)NC(=O)[C@H](CO)NC(=O)[C@H](CO)NC(=O)[C@H](Cc1c[nH]cn1)NC(=O)[C@H](C)NC(=O)[C@@H](N)CCCNC(=N)N)C(=O)N[C@@H](CCCCN)C(=O)O [p53 363-370] | – | – | + (Stable peptides displayed IC50 at 20 °C that deviated <2 times of the IC50 at 4° C.) | high | + (Stable peptides displayed IC50 at 20 °C that deviated <2 times of the IC50 at 4° C.) | +/− (Peptides that displayed IC50 at 20 °C of more than twice the IC50 at 4 °C but IC50 < 15 μM were considered to bind with intermediate stability.) | +/− (Peptides that displayed IC50 at 20 °C of more than twice the IC50 at 4 °C but IC50 < 15 μM were considered to bind with intermediate stability.) | –
